Measured values from patent publication US20040073007A1, “Antiangiogenic peptides” (priority 2001, published 2004).
Ends that are not written are not given here. * marks the point of attachment. Acm = CC(=O)NC*

What was measured:
male mice C57/b16 = test: Matrigel pellet s.c. in mice, hemoglobin amount (Drabkin's method); type: in vivo; conditions: Matrigel with FGF 2 ng/ml and heparin 36 U/ml s.c., 4 days; dose of 1 mg/mouse; compared with controls
Method: […] of Matrigel containing FGF 2 ng/ml and heparin 36 U/ml were inoculated s.c. in the abdominal region of male mice C57/b16, of age from 6 to 10 weeks. […] Six animals were used in each experiment. After 4 days, the gelatinized Matrigel pellet was recovered and the amount of hemoglobin therein was measured by means of a commercial kit based on Drabkin's method ([…] Aldrich).

endothelial cells = test: Tubules formation by endothelial cells on Matrigel; type: cell-based; conditions: endothelial cells on Matrigel with FGF or VEGF; area quantified by NIH Image
Method: The formation of tubular structures, similar to capillaries, was evaluated by seeding the endothelial cells on a Matrigel carrier, a re-constructed basal membrane, with the characteristic of being liquid at 4° C. and of undergoing polymerization at 37° C. forming a tri-dimensional gel. Proangiogenic factors, such as Fibroblast Growth Factor (FGF) or Vascular Endothelial Growth Factor (VEGF), were added to the medium in the presence of the peptide 9-49 and the plate's were incubated at 37° C. under 5% CO2 atmosphere. Tubules formation was monitored observing the cells with an inverted microscope and, after recording the image by means of photography, a quantification was performed by evaluating the area occupied by the cells and by the capillaries network. Upon observation under the microscope, it is evident that the peptide of invention is able to inhibit the capacity of endothelial cells to form tubular structures similar to capillaries, which on the contrary are clearly evident in the untreated control cells (FIG. 4A). In FIG. 4B, a quantitative analysis of the effect, carried out by a proper software (NIH Image), is reported.

EA.hy.926 cells [1] = test: EA.hy.926 cell migration, chemotaxis test in Boyden chamber; type: cell-based, human; conditions: glioma conditioned medium as chemotactic stimulus, 4 hours, at/starting from 10^−9 M
Method: Endothelial human cells EA.hy.926 were grown in DMEM supplemented with 10% fetal bovine serum (FBS) and with the appropriate concentrations of glutamine and antibiotics. Before the experiments, the cells had been deprived of serum for 24 hours in 0.1% FBS. EA.hy.926 cells migration has been evaluated by chemotaxis test in a 48 well Boyden chamber using polycarbonate filters of 12 μm porosity pre-treated with a 10 μg/ml type I collagen solution. […] The chemotactic stimulus, represented by a conditioned medium obtained by a culture of glioma cells, was added to the lower chamber. After 4 hours of incubation at 37° C., non migrated cells were removed by a scraper and the filter was colored with Diff Quick. Migrated cells were then counted at a 400×magnification in 6 different fields. The results, reported in FIG. 2, are expressed as a percentage of the maximal migration induced by the conditioned medium in the presence of the peptide or of endostatin.

EA.hy.926 cells [2] = test: DNA synthesis (tritiated thymidine incorporation) in EA.hy.926 cells stimulated with 10% FBS; type: cell-based, human; conditions: 24 hours, starting from the concentration of 10^−12 M
Method: Endothelial human cells EA.hy.926 were grown in DMEM supplemented with 10% fetal bovine serum (FBS) and with the appropriate concentrations of glutamine and antibiotics. Before the experiments, the cells had been deprived of serum for 24 hours in 0.1% FBS. EA.hy.926 cells were inoculated in 96 well-plates and, after being deprived of serum for 24 hours, were 'stimulated with 10% FBS in the presence or in the absence of different concentrations of the peptide 6-49 or of endostatin for further 24 hours. Tritiated tymidine (1 μCi/well) was added during the last 6 hours of incubation. The cells were then extracted in 10% TCA and the radioactivity incorporated in the TCA-insoluble fraction was determined after solubilization in 0.5 M NaOH. The results, reported in FIGS. 3a and 3b, are expressed as the percentage of the maximal stimulation induced by 10% serum in the absence of the drug.

FQPVLHLVALNSPLSGGMRGIRGADFQC(Acm)FQQARAVGLAGTFRAF [Peptide 6-49, tetratetracontapeptide]
hemoglobin levels in the Matrigel pellets (male mice C57/b16): capable of reducing hemoglobin levels
tubules formation compared with controls, considered as 100% (endothelial cells): 23%
maximal inhibition of cell migration (EA.hy.926 cells [1]): about 60%
maximal inhibition of DNA synthesis (EA.hy.926 cells [2]): about 80%
